Each structure is given as a SMILES string.

For this test, the system named is NCI-H522. In words: Cytotoxicity against human NCI-H522 cells by SRB assay. It is filed as functional.

For `Nc1c(C(=O)Nc2ccccc2)sc2nc3c(cc12)C(=O)CCC3`, the concentration for 50% growth inhibition (GI50) is 150 nM, the LC50 was 68000 nM and net growth stopped (TGI) at 402 nM.

As for `Cc1cc(C)c(NC(=O)c2sc3nc4c(cc3c2N)C(=O)CCC4)c(C)c1`, the GI50 came to 360 nM and the TGI stood at 2010 nM.

In the case of `Cc1ccccc1NC(=O)c1sc2nc3c(cc2c1N)C(=O)CCC3`, growth was halved (GI50) at 895 nM and the TGI was determined as 3500 nM.

For `Cc1ccc(Cl)cc1NC(=O)c1sc2nc3c(cc2c1N)C(=O)CCC3`, the GI50 is 2170 nM and net growth stopped (TGI) at 4950 nM.

Turning to `Nc1c(C(=O)Nc2cccc(Cl)c2)sc2nc3c(cc12)C(=O)CCC3`, the GI50 stood at 190 nM and the concentration for total growth inhibition (TGI) stood at 788 nM.

`Nc1c(C(=O)Nc2ccccc2F)sc2nc3c(cc12)C(=O)CCC3` returned a GI50 of 440 nM and a TGI of 3310 nM.

For the origin of these results see ChEMBL document CHEMBL2202954, “The effect of PLC-γ2 inhibitors on the growth of human tumour cells” (2012).
